These results are taken from patent US8614217B2 (priority 2008, dated 2013).

Each structure is given as a SMILES string.

One series is described as follows: log P(HCOOH) (HPLC/MS). The series is classed as physicochemical. The settings on record: HCOOH (formic acid); read-out: log P(HCOOH).
As to `O=C1c2ccccc2C(=O)N1OCc1cccc(N2C(=O)c3ccccc3C2=O)n1` [2-(6-{[(1,3-dioxo-1,3-dihydro-2H-isoindol-2-yl)oxy]methyl}pyridin-2-yl)-1H-isoindole-1,3(2H)-dione], the chromatographic logP turned out to be 2.44.

Regarding `Cn1nnnc1C(=NOCc1cccc(N2C(=O)c3ccccc3C2=O)n1)c1ccccc1` [2-{6-[({[(1-methyl-1H-tetrazol-5-yl)(phenyl)methylene]amino}oxy)methyl]pyridin-2-yl}-1H-isoindole-1,3(2H)-dione], the chromatographic logP came out at 3.04.

Take `NOCc1cccc(N)n1` [6-[(aminooxy)methyl]pyridin-2-amine]: the chromatographic logP was below -0.23.

On to `Cn1nnnc1C(=NOCc1cccc(N)n1)c1ccccc1` [6-[({[(1-methyl-1H-tetrazol-5-yl)(phenyl)methylene]amino}oxy)methyl]pyridin-2-amine], for which the chromatographic logP was 1.14.

The same series, now with this note: HCOOH; read-out: log P(HCOOH).
As for `Cn1nnnc1C(=NOCc1cccc(N)n1)c1ccccc1` [6-[({[(1-methyl-1H-tetrazol-5-yl)(phenyl)methylene]amino}oxy)methyl]pyridin-2-amine], the chromatographic logP was determined as 1.13.

Staying with this series, now noted: HPLC on reversed phase columns, EEC directive 79/831 Annex V.A8; pH 2.7, 0.1% formic acid in water / acetonitrile gradient.
The molecule `Cc1nnnn1C(=NOCc1csc(NC(=O)C2CCOCC2)n1)c1ccccc1` (mixture of isomers) [Example 73] showed a log p of 2.49.

As to `Cc1nnnn1C(=NOCc1csc(NC(=O)COC2CC(C)CCC2C(C)C)n1)c1ccccc1` (mixture of isomers) [Example 86], the log p came out at 5.48.

The molecule `Cn1nnnc1C(=NOCc1cccc(NC(=O)CCOc2ccccc2)n1)c1cccc(F)c1` [Example 10] registered a log p of 3.64.

Take `C#CCCOC(=O)Nc1cccc(CON=C(c2cccc(F)c2)c2nnnn2C)n1` [Example 13]: the log p is listed as 3.21.

Take `C#CCCOC(=O)Nc1cccc(CON=C(c2ccccc2)n2nnnc2C)n1` [Example 17]: the log p was found to be 3.15.

`Cc1nnnn1C(=NOCc1cccc(NC(=O)OCCCCCl)n1)c1ccccc1` [Example 20] had a log p of 3.73.

Molecule `Cc1nnnn1C(=NOCc1cccc(NC(=O)OC2CCCCCC2)n1)c1ccccc1` [Example 21] had a log p of 4.71.

For the molecule `C#CCCOC(=O)Nc1cccc(CON=C(c2cccc(F)c2)n2nnnc2C)n1` [Example 23], the log p stood at 3.21.

`C#CCCCC(=O)Nc1cccc(CON=C(c2cccc(F)c2)n2nnnc2C)n1` [Example 35] showed a log p of 3.15.

For the molecule `Cc1nnnn1C(=NOCc1cccc(NC(=O)CC2CCCCC2)n1)c1ccccc1` [Example 40], the log p is 4.12.

On to `Cc1nnnn1C(=NOCc1cccc(NC(=O)CC2CCCCC2)n1)c1cccc(F)c1` [Example 41], for which the log p is 4.23.

With `Cc1nnnn1C(=NOCc1cccc(NC(=O)CCC2CCCC2)n1)c1ccccc1` [Example 44], the log p was determined as 4.25.

With `Cc1nnnn1C(=NOCc1cccc(NC(=O)CCC2CCCC2)n1)c1cccc(F)c1` [Example 45], the log p amounted to 4.33.

For `Cc1nnnn1C(=NOCc1cccc(NC(=O)C(F)(F)Sc2ccccc2)n1)c1ccccc1` [Example 48], the log p turned out to be 4.2.

Molecule `C#CCCCC(=O)Nc1cccc(CON=C(c2ccccc2)c2nnnn2C)n1` [Example 55] returned a log p of 2.98.

`C=CCOC(=O)Nc1cccc(CON=C(c2ccccc2)c2nnnn2C)n1` [Example 56] showed a log p of 3.21.

Take `C=CCCOC(=O)Nc1cccc(CON=C(c2ccccc2)c2nnnn2C)n1` [Example 57]: the log p amounted to 3.51.

Still in this series, the particulars now being: HPLC on reversed phase columns, EEC directive 79/831 Annex V.A8; pH 2.7, 0.1% formic acid in water / acetonitrile gradient; read-out: log p.
Regarding `C#CCCCC(=O)Nc1cccc(CON=C(c2ccccc2)n2nnnc2C)n1` [Example 34], the chromatographic logP was 3.04.

The same series, now with this note: HPLC on reversed phase columns, EEC directive 79/831 Annex V.A8; pH 2.7 with 0.1% formic acid in water and acetonitrile.
Regarding `CC(Oc1ccc(F)cc1)C(=O)Nc1cccc(CON=C(c2ccccc2)c2nnnn2C)n1` (mixture of isomers) [Example 262], the log p came to 3.79.

Molecule `C=CCCOC(=O)Nc1cccc(CON=C(c2ccccc2C)c2nnnn2C)n1` (mixture of isomers) [Example 315] displayed a log p of 3.65.

The molecule `C#CCCOC(=O)Nc1cccc(CON=C(c2ccccc2Cl)c2nnnn2C)n1` (mixture of isomers) [Example 372] gave a log p of 3.21.

On to `Cn1nnnc1C(=NOCc1cccc(NC(=O)CCOc2ccccc2)n1)c1ccccc1Cl` (mixture of isomers) [Example 373], for which the log p was 3.63.
